From paper PMC12488667, “Orodispersible films containing chestnut shell phenolics for buccal delivery: a preclinical approach for oral mucositis prevention” (Frontiers in Medical Technology, 2025) come the findings set out here.

Data set [1] has as its system TR146 cells. As to the kind of experiment: In vitro permeation, buccal model. The data set is classed as in vitro ADME, human. As for the experimental part: The in vitro permeability of the bioactive compounds present in OFs (n = 9) was determined using a co-culture model composed of TR146 ([31]). The extract and the CS-loaded OFs were added to the apical side of the model as a stock solution. […] The Transepithelial Electrical Resistance (TEER) of the model was evaluated before, during, and at the end of the permeability assay using an EVOM Epithelial Volthometer equipped with a chopstick electrode (World Precision Instruments, Sarasota, FL, USA).
(§1) The identification and quantification of the phenolic compounds present in the extract and the OFs, as well as the compounds that permeated from the OFs through in vitro and ex vivo assays, were conducted using an LC-ESI-LTQ-Orbitrap-HRMS equipment with an Accela chromatograph (Thermo Scientific, Hemel Hempstead, UK), a photodiode array detector, a quaternary pump, and a temperature-controlled autosampler coupled to a high-resolution LTQ Orbitrap Velos mass spectrometer (Thermo Scientific, Hemel Hempstead, UK) with an ESI source in negative mode ([33], [34]). The system was controlled using the Xcalibur v3.0 software (ThermoFisher Scientific, Hemel Hempstead, UK). Elution was performed on an Acquity™ UPLC® BEH C18 Column (2.1 × 100 mm, i.d., 1.7 µm particle size, Waters Corporation, Wexford, Ireland) maintained at 30°C.
(§2) Gradient elution was performed with water (A) and acetonitrile (B), both with 0.1% formic acid, with a flow rate and injection volume of 450 µl/min and 5 µl, respectively. The solvent gradient (v/v) of B [t (min), %B] was set as follows: (0, 0), (2, 0), (4, 30), (8, 100), (10, 100), (11, 0), and (14, 0). The samples were analyzed in the full scan mode at a resolving power of 30,000 and m/z 600. Data-dependent MS/MS events were acquired at a resolution of 15,000. Most intense ions were detected via the FTMS mode-triggered data-dependent acquisition mode. Ions that were not sufficiently intense for a data-dependent scan were explored in MSn mode. Precursors were fragmented by collision-induced dissociation using a C-trap with a normalized collision energy (35 V) and an activation time of 10 ms. […] Compounds whose theoretical [M–H]^− values exceeded the MS¹ acquisition range (m/z 100–600) were annotated based on characteristic MSⁿ fragment ions detected within the scan window.

Data set [2] in a line: Ex vivo permeation, Franz cells. The format is in vitro ADME, porcine. The procedure: Porcine buccal mucosa was used to evaluate the buccal permeation of the phenolic compounds in the extract and the CS-loaded OFs (n = 9). The porcine buccal mucosa was purchased in a local butcher shop, not requiring ethical approval. A Franz cell assembly (9 mm clear jacketed Franz cell with a flat ground joint, 5 ml receptor volume, and permeation area of 0.785 cm^2; PermeGear, Inc., USA) was used. This experiment followed the methodology described by Rodrigues et al. ([32]). In the Franz apparatus, the porcine buccal mucosa was positioned with the cheek side facing the donor chamber, which contained 500 µl (1,000 μg/ml) of the CS extract or the CS-loaded OFs (two square films (2 × 2 cm) with […] of thickness were dissolved in 4 ml of artificial saliva; donor concentration was normalized to ensure equivalence between the extract solution and the film formulation). The receptor chamber was filled with 5 ml PBS, maintained at 37°C, and stirred continuously at 150 rpm. The volume was maintained through the experiments.
as §1, §2
Quantitative analysis was performed by using a validated chromatographic method ([38]).

Marks after values point to notes of the source that are not given here.

For `COc1cc(CC(=O)O)ccc1O` [Homovanillic acid], the “Quantification of permeated compounds” value is recorded as 0.58 ± 0.03^a mg/ml in data set [1] (CS extract), 0.41 ± 0.01^a mg/g film in data set [1] (CS-loaded OFs), 2.03 ± 0.03^a mg/ml in data set [2] (CS extract) and 1.67 ± 0.03^a mg/g film in data set [2] (CS-loaded OFs). Moreover, the “Permeation (%)” value in data set [1] (from CS extract, 15 min) was 93.51 ± 2.52^b %; in data set [1] (from CS extract, 30 min) it was 92.34 ± 1.55^b %; in data set [1] (from CS extract, 45 min) it was 92.13 ± 1.08^b %; in data set [1] (from CS extract, 60 min), 93.10 ± 0.94^b %; in data set [1] (from CS extract, 90 min), 94.47 ± 3.00^b %; in data set [1] (from CS extract, 120 min), 90.93 ± 2.74^b %. Besides, the “Permeation (%)” value was 91.20 ± 1.73^b % in data set [1] (from CS extract, 180 min); 87.20 ± 2.06^a % in data set [1] (from CS extract, 240 min); 87.20% in data set [1] (from CS extract, 240 min, listed as homovanillic acid); 106.01 ± 1.46^a % in data set [1] (from CS-loaded OFs, 15 min); 104.89 ± 1.08^a % in data set [1] (from CS-loaded OFs, 30 min); 105.41 ± 0.99^a % in data set [1] (from CS-loaded OFs, 45 min). Also, the “Permeation (%)” value is on record as 103.62 ± 2.72^a % in data set [1] (from CS-loaded OFs, 60 min); 105.25 ± 2.83^a % in data set [1] (from CS-loaded OFs, 90 min); 109.09 ± 1.97^a % in data set [1] (from CS-loaded OFs, 120 min); 106.07 ± 2.67^a % in data set [1] (from CS-loaded OFs, 180 min); 110.05 ± 3.61^a % in data set [1] (from CS-loaded OFs, 240 min); 110.05% in data set [1] (from CS-loaded OFs, 240 min, listed as homovanillic acid). Moreover, the “Permeation (%)” value is reported as 99.88 ± 2.79^a % in data set [2] (from CS extract, 15 min) and 100.53 ± 3.72^a % in data set [2] (from CS extract, 30 min).
As for `O=C(O)C[C@H](C(=O)O)[C@@H](O)C(=O)O` [Isocitric acid], the “Quantification of permeated compounds” value was 222.23 ± 6.57^a mg/ml in data set [1] (CS extract), 306.36 ± 13.65^b mg/g film in data set [1] (CS-loaded OFs), 2.20 ± 0.05^a mg/ml in data set [2] (CS extract) and 2.21 ± 0.16^a mg/g film in data set [2] (CS-loaded OFs). The “Permeation (%)” value is listed as 0.04 ± 0.01^a % in data set [1] (from CS extract, 15 min); 0.12 ± 0.03^a % in data set [1] (from CS extract, 30 min); 0.15 ± 0.01^a % in data set [1] (from CS extract, 45 min); 0.15 ± 0.01^a % in data set [1] (from CS extract, 60 min); 0.24 ± 0.03^a % in data set [1] (from CS extract, 90 min); 0.33 ± 0.02^a^,^b % in data set [1] (from CS extract, 120 min). In addition, the “Permeation (%)” value was 0.54 ± 0.04^a^,^b % in data set [1] (from CS extract, 180 min); 0.70 ± 0.01^b % in data set [1] (from CS extract, 240 min); 0.15 ± 0.001^a % in data set [1] (from CS-loaded OFs, 15 min); 0.29 ± 0.05^a % in data set [1] (from CS-loaded OFs, 30 min); 0.50 ± 0.06^a % in data set [1] (from CS-loaded OFs, 45 min); 0.62 ± 0.02^a % in data set [1] (from CS-loaded OFs, 60 min). For the same compound, the “Permeation (%)” value in data set [1] (from CS-loaded OFs, 90 min) is 1.04 ± 0.01^b %; in data set [1] (from CS-loaded OFs, 120 min), 1.40 ± 0.04^b %; in data set [1] (from CS-loaded OFs, 180 min), 2.77 ± 0.01^b %; in data set [1] (from CS-loaded OFs, 240 min), 3.38 ± 0.06^b %; in data set [2] (from CS extract, 15 min), 15.13 ± 0.29^a %; in data set [2] (from CS extract, 30 min), 13.91 ± 1.51^a %. The “Permeation (%)” value in data set [2] (from CS-loaded OFs, 15 min) is given as 19.05 ± 1.12^a %; in data set [2] (from CS-loaded OFs, 30 min), 19.02 ± 0.90^a %.
Consider `O=C(O)CCC(=O)O` [Succinic acid], for which the “Quantification of permeated compounds” value in data set [1] (CS extract) was 1.60 ± 0.03^a mg/ml; in data set [1] (CS-loaded OFs), 0.82 ± 0.01^a mg/g film; in data set [2] (CS extract), 1.26 ± 0.01^b mg/ml; in data set [2] (CS-loaded OFs), 0.38 ± 0.01^a mg/g film. Besides, the “Permeation (%)” value in data set [1] (from CS extract, 15 min) was 20.51 ± 1.62^b %; in data set [1] (from CS extract, 30 min), 14.86 ± 2.71^a %; in data set [1] (from CS extract, 45 min), 16.09 ± 1.85^a %; in data set [1] (from CS extract, 60 min), 14.96 ± 0.46^a %; in data set [1] (from CS extract, 90 min), 19.54 ± 0.94^b %; in data set [1] (from CS extract, 120 min) it was 20.71 ± 1.67^b %. Besides, the “Permeation (%)” value is given as 21.62 ± 0.61^b % in data set [1] (from CS extract, 180 min); 23.76 ± 1.68^b % in data set [1] (from CS extract, 240 min); 44.20 ± 2.19^a % in data set [1] (from CS-loaded OFs, 15 min); 64.44 ± 1.03^c % in data set [1] (from CS-loaded OFs, 30 min); 56.70 ± 1.23^b % in data set [1] (from CS-loaded OFs, 45 min); 57.45 ± 0.78^b % in data set [1] (from CS-loaded OFs, 60 min). Moreover, the “Permeation (%)” value in data set [1] (from CS-loaded OFs, 90 min) is reported as 79.12 ± 4.41^c %; in data set [1] (from CS-loaded OFs, 120 min) it was 88.23 ± 1.26^c %; in data set [1] (from CS-loaded OFs, 180 min), 103.25 ± 1.42^d %; in data set [1] (from CS-loaded OFs, 240 min) it was 100.86 ± 1.75^d %; in data set [1] (from CS-loaded OFs, 240 min, listed as succinic acid), 100.86%; in data set [2] (from CS extract, 15 min), 60.67 ± 0.21^b %. Besides, the “Permeation (%)” value is 70.72 ± 3.61^b % in data set [2] (from CS extract, 30 min); 14.00 ± 0.63^a % in data set [2] (from CS-loaded OFs, 15 min); 16.11 ± 0.72^a % in data set [2] (from CS-loaded OFs, 30 min).
As for `O=C(O)CCCCCCCCCC(=O)O` [Undecanedioic acid], the “Quantification of permeated compounds” value was 23.93 ± 1.12^a mg/ml in data set [2] (CS extract) and 23.67 ± 5.00^a mg/g film in data set [2] (CS-loaded OFs). The “Permeation (%)” value in data set [2] (from CS extract, 15 min) is listed as 85.64 ± 4.12^a %; in data set [2] (from CS extract, 30 min), 86.86 ± 3.52^a %.
With `O=C(O)c1cccc(O)c1` [3-Hydroxybenzoic acid], the “Quantification of permeated compounds” value in data set [1] (CS extract) is given as 1.52 ± 0.02^a mg/ml; in data set [1] (CS-loaded OFs), 0.36 ± 0.03^a mg/g film; in data set [2] (CS extract), 1.18 ± 0.1^b mg/ml; in data set [2] (CS-loaded OFs) it was 0.09 ± 0.02^a mg/g film. The “Permeation (%)” value in data set [1] (from CS extract, 15 min) is 13.57 ± 0.05^a %; in data set [1] (from CS extract, 30 min) it was 13.06 ± 0.03^a %; in data set [1] (from CS extract, 45 min), 14.09 ± 0.01^a %; in data set [1] (from CS extract, 60 min), 17.29 ± 0.01^a %; in data set [1] (from CS extract, 90 min) it was 16.17 ± 0.06^a %; in data set [1] (from CS extract, 120 min), 29.12 ± 0.19^b %. Also, the “Permeation (%)” value in data set [1] (from CS extract, 180 min) was 16.86 ± 0.23^a %; in data set [1] (from CS extract, 240 min), 24.23 ± 0.45^b %; in data set [2] (from CS extract, 15 min) it was 5.91 ± 0.06^a %; in data set [2] (from CS extract, 30 min) it was 4.76 ± 0.02^a %; in data set [2] (from CS-loaded OFs, 15 min), 45.86 ± 0.03^b %; in data set [2] (from CS-loaded OFs, 30 min), 105.28 ± 3.37^b %.
For `O=C(O)[C@]1(O)C[C@@H](O)[C@@H](O)[C@H](O)C1` [Quinic acid], the “Quantification of permeated compounds” value in data set [2] (CS extract) is 1.02 ± 0.02^b mg/ml; in data set [2] (CS-loaded OFs), 0.39 ± 0.01^a mg/g film. Also, the “Permeation (%)” value in data set [2] (from CS extract, 15 min) was 29.36 ± 1.68^a %; in data set [2] (from CS extract, 30 min) it was 28.33 ± 1.16^a %; in data set [2] (from CS-loaded OFs, 15 min) it was 70.71 ± 1.52^b %; in data set [2] (from CS-loaded OFs, 30 min) it was 74.31 ± 1.78^b %.
With `O=c1[nH]c(=O)c2[nH]cnc2[nH]1` [Xanthine], the “Permeation (%)” value is 6.94 ± 0.02^a % in data set [2] (pig, 15 min, 1000 μg/ml) and 6.48 ± 0.02^a % in data set [2] (pig, 30 min, 1000 μg/ml).
